This note sets out measurements from publication PMC7523345 (Investigational new drugs, 2018).

Series [1] can be described thus: clinical. More on the design: species or system human. Particulars: in vivo.
In series [2] the test system is Deltex1. Kind of series: Deltex1 expression in peripheral blood. The class given is in vivo, human. Particulars: 4 mg BIW.

Molecules are shown by their SMILES.

`Cc1cccc2c1NC(=O)[C@@H](NC(=O)[C@H](CCC(F)(F)F)[C@H](CCC(F)(F)F)C(N)=O)N=C2c1cccc(F)c1` [BMS-986115]: the half-life (commonly how long it takes for the measured level to halve) in series [1] (human) was in the range of 17.2 to 28 h. The “median accumulation ratio (AUCtau ratio of Day 15/Day 1)” value in series [1] (human, 0.3 mg) came to 2.64; in series [1] (human, 0.6 mg), 3.9; in series [1] (human, 1.2 mg) it was 3.66; in series [1] (human, 1.5 mg), 2.33; in series [1] (human, 2 mg), 2.19. Further, the “Accumulation ratio (AUCtau ratio of Day 16/Day 1)” value in series [1] (human, 2 mg) is 2.47; in series [1] (human, 4 mg), 3.01; in series [1] (human, 8 mg), 2.77. Besides, the “Exposure, dose relation” value in series [1] was “dose related increase”. Further, in series [2], the “Inhibition of geometric mean relative expression of Deltex1” value is more than 50%.
